# PMC12299463, “Cladolosides of Groups S and T: Triterpene Glycosides from the Sea Cucumber Cladolabes schmeltzii with Unique Sulfation; Human Breast Cancer Cytotoxicity and QSAR” (Marine Drugs, 2025)
# “And” between values parts separate entries of the source, which are not always exact repeats. Identical values can stand only once. Counter-ions that a name gives are not always drawn. Like-named read-outs stand apart in the source and are kept apart here.
# Key:
# human erythrocytes = assay: Hemolytic activity against human erythrocytes; format: cell-based; details: for ED50, Erythrocytes (hemolytic activity): 1 h at 37 °C
# Experimental: A total of 450 g of human blood (B(III) Rh+) was used to obtain erythrocytes by centrifuging three times for 5 min with phosphate-buffered saline (PBS) (pH 7.4) at 4 °C on a centrifuge LABOFUGE 400R (Heraeus, Hanau, Germany). Ice-cold PBS (pH 7.4) was used for resuspension of erythrocyte residue to a final optical density of 1.5 at 700 nm. Then, 20 µL of tested compound solutions or control (cucumarioside A0-1 [15]) were added to 180 µL of erythrocyte suspension in V-bottom 96-well plates and incubated for 1 h at 37 °C. After centrifugation (900 g, 10 min, laboratory centrifuge LMC-3000 (Biosan, Riga, Latvia)), 100 µL of supernatant was transferred into new flat plates. The values of erythrocyte lysis were measured on microplate photometer Multiskan FC (Thermo Fisher Scientific, Waltham, MA, USA) at λ = 570 nm as hemoglobin concentration in supernatant. […] All the experiments were carried out in triple repetitions, p < 0.05.
# [1] = test system: MDA-MB-231 triple-negative breast cancer cells; assay: cells; format: cell-based, human; details: for Selectivity Index (SI), MDA-MB-231: ratio of IC50 for healthy (MCF-10A) and MDA-MB-231 cells
# in vitro = format: cell-based, human; details: human
# [2] = test system: MCF-7 human breast cancer cells; assay: cells; format: cell-based;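 also: IC50 values, including those behind the selectivity ratio, derive from formazan absorbance at 570 nm, tested in triplicate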
# [3] = test system: T-47D human breast cancer cells; assay: cells; format: cell-based; details: for Selectivity Index (SI), T-47D: ratio of IC50 for healthy (MCF-10A) and T-47D cells;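 as to all read-outs here: cell viability read as absorbance of formazan dye at 570 nm, each experiment run in triplicate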
# [4] = test system: MCF-10A non-tumor mammary epithelial cell line; assay: in vitro; format: cell-based, human
# [5] = Homo sapiens, MDA-MB-231, read-out: Cytotoxicity, IC50, MDA-MB-231
# [6] = Homo sapiens, MCF7, read-out: Cytotoxicity, IC50, MCF-7
# [7] = Homo sapiens, T47D, read-out: Cytotoxicity, IC50, T-47D
# [8] = MTT assay, MDA-MB-231, read-out: Cytotoxicity, IC50, MDA-MB-231
# [9] = MTT assay, MCF-10A, read-out: Cytotoxicity, IC50, MCF-10A
# [10] = MTT assay, MCF-7, read-out: Cytotoxicity, IC50, MCF-7
# [11] = MTT assay, T-47D, read-out: Cytotoxicity, IC50, T-47D
Compound,"Hemolytic (membranolytic) activity, in words (human erythrocytes)","ED50, Erythrocytes (hemolytic activity) (human erythrocytes)","IC50 [1, 5] [µM]",IC50 (in vitro) [µM],"IC50 [2, 6] [µM]","IC50 [3, 7] [µM]","Selectivity Index (SI), MDA-MB-231 [1]","Selectivity Index (SI), T-47D [3]",IC50 [1] [µM],IC50 [4] [µM],IC50 [2] [µM],IC50 [3] [µM],"ED50, Erythrocytes (hemolytic activity) (human erythrocytes; listed as cladoloside I2 (29)) [µM]","ED50, Erythrocytes (hemolytic activity) (human erythrocytes; listed as C (13)) [µM]","ED50, Erythrocytes (hemolytic activity) (human erythrocytes; listed as cladoloside C (13)) [µM]","IC50 [1, 8] [µM]","IC50 [4, 9] [µM]","IC50 [2, 10] [µM]","IC50 [3, 11] [µM]","Selectivity Index (SI), MCF-7 ([2]; ratio of IC50 for healthy (MCF-10A) and MCF-7 cells)"
"CO[C@@H]1[C@@H](O)[C@H](O[C@@H]2[C@@H](O)[C@H](O[C@H]3[C@H](O)[C@@H](O)[C@H](O[C@H]4[C@H](O[C@H]5CC[C@]6(C)C7=CCC89C(=O)O[C@@](C)([C@@H](CCC(C)C)OC(C)=O)[C@H]8[C@@H](OC(C)=O)C[C@@]9(C)[C@@H]7CC[C@H]6C5(C)C)OC[C@@H](O[C@@H]5OC[C@@H](O)[C@H](O)[C@H]5O)[C@@H]4O)O[C@@H]3C)OC[C@H]2O)O[C@H](COS(=O)(=O)O)[C@H]1O (stereo partly drawn) [Cladoloside S1 (2), 3β-O-{6-O-sodium sulfate-3-O-methyl-β-D-glucopyranosyl-(1→3)-β-D-xylopyranosyl-(1→4)-β-D-quinovopyranosyl-(1→2)-[(1→4)-β-D-xylopyranosyl]-β-D-xylopyranosyl}-16S,22R-diacetoxyholost-9-en]",moderately active,4.78 ± 0.30 µM,> 20,> 20,> 20,> 20,,,,,,,,,,,,,,
"C=C(C)CC[C@@H](OC(C)=O)[C@]1(C)OC(=O)C23CC=C4[C@@H](CC[C@H]5C(C)(C)[C@@H](O[C@@H]6OC[C@@H](O[C@@H]7OC[C@@H](O)[C@H](O)[C@H]7O)[C@H](O)[C@H]6O[C@@H]6O[C@H](C)[C@@H](O[C@@H]7OC[C@@H](O)[C@H](O[C@@H]8O[C@H](COS(=O)(=O)O)[C@@H](O)[C@H](OC)[C@H]8O)[C@H]7O)[C@H](O)[C@H]6O)CC[C@]45C)[C@]2(C)C[C@H](OC(C)=O)[C@@H]31 (stereo partly drawn) [Cladoloside S (1), 3β-O-{6-O-sodium sulfate-3-O-methyl-β-D-glucopyranosyl-(1→3)-β-D-xylopyranosyl-(1→4)-β-D-quinovopyranosyl-(1→2)-[(1→4)-β-D-xylopyranosyl]-β-D-xylopyranosyl}-16S,22R-diacetoxyholosta-9,25-diene]",moderately active,3.40 ± 0.25 µM,13.2 ± 1.08,> 20,> 20,14.8 ± 0.71,>1.51,>1.35,,,,,,,,,,,,
"C=C(C)CC[C@@H](OC(C)=O)[C@]1(C)OC(=O)C23CC=C4[C@@H](CC[C@H]5C(C)(C)[C@@H](O[C@@H]6OC[C@@H](O[C@@H]7O[C@H](CO)[C@@H](O)[C@H](O[C@@H]8O[C@H](CO)[C@@H](O)[C@H](OC)[C@H]8O)[C@H]7O)[C@H](O)[C@H]6O[C@@H]6O[C@H](C)[C@@H](O[C@@H]7OC[C@@H](O)[C@H](O[C@@H]8O[C@H](CO)[C@@H](O)[C@H](OS(=O)(=O)O)[C@H]8O)[C@H]7O)[C@H](O)[C@H]6O)CC[C@]45C)[C@]2(C)C[C@H](OC(C)=O)[C@@H]31 (stereo partly drawn) [Cladoloside T (3), 3β-O-{3-O-sodium sulfate-β-D-glucopyranosyl-(1→3)-β-D-xylopyranosyl-(1→4)-β-D-quinovopyranosyl-(1→2)-[3-O-methyl-β-D-glucopyranosyl-(1→3)-β-D-glucopyranosyl-(1→4)]-β-D-xylopyranosyl}-16S,22R-diacetoxyholosta-9,25-diene]",,0.39 µM and 0.39 ± 0.03 µM,,,,,,,3.41 ± 0.33,8.23 ± 0.52,8.99 ± 0.61,8.21 ± 0.72,,,,,,,,
"C=C(C)CC[C@@H](OC(C)=O)[C@]1(C)OC(=O)C23CC=C4[C@@H](CC[C@H]5C(C)(C)[C@@H](O[C@@H]6OC[C@@H](O[C@@H]7O[C@H](CO)[C@@H](O)[C@H](O)[C@H]7O)[C@H](O)[C@H]6O[C@@H]6O[C@H](C)[C@@H](O[C@@H]7OC[C@@H](O)[C@H](O[C@@H]8O[C@H](COS(=O)(=O)[O-])[C@@H](O)[C@H](OC)[C@H]8O)[C@H]7O)[C@H](O)[C@H]6O)CC[C@]45C)[C@]2(C)C[C@H](OC(C)=O)[C@@H]31.[Na+] (stereo partly drawn) [I2 (29), cladoloside I2]",,4.24 ± 0.31 µM,,,,,,,> 20,> 20,> 20,> 20,4.24,,,,,,,
cladoloside C [Cladoloside C (13)],high activity,,,,,,>1.54,>1.61,,,,,,0.44 ± 0.05,0.44,13 ± 0.8,> 20,> 20,12.4 ± 0.66,
cucumarioside A0-1 [reference compound],,1.63 ± 0.21 µM,,,,,2.13,0.89,,,,,,,,3.53 ± 0.54,7.51 ± 0.63,11.3 ± 1,8.46 ± 0.53,0.66
